In patent US20210221834A1, “SWEETENER AND SWEETENED COMPOSITIONS INCORPORATING REBAUDOSIDE N” (CARGILL, INCORPORATED, priority 2013, published 2021):
“Also recorded” adds a separate entry of the source.

Tests used:
Format in all cases: in vivo, human
[1] = Sensory evaluation of Reb A, Reb D and Reb N solutions in water (Example 2); design: key to Bitterness: 1 = none; 2 = trace; 3 = faint; 4 = mild; 5 = moderate; 6 = definite; 7 = strong; 8 = very strong; 9 = extreme; conditions: 500 ppm (wt/wt) in water, room temperature; for Sweetness Intensity (percent sucrose equivalent sweetness): two scientists, sucrose standards 6%, 7%, 8%; for Bitterness: intensity scale 1-9
Procedure: Solutions containing 500 ppm (wt/wt) of RebA, RebD and RebN, respectively, in water were prepared and evaluated at room temperature by two scientists with training and experience in the sensory evaluation of steviol glycosides. The samples were evaluated for sweetness intensity and other qualitative attributes. A set of sucrose standards were prepared by dissolving sugar into room temperature water (6%, 7%, 8% by weight) and used as references for sweetness intensity.

[2] = Sensory evaluation of three-way blends of reb A, reb B and reb N in water (Example 3); conditions: 500 ppm (wt/wt) in water, room temperature
Procedure: Solutions containing 500 ppm (wt/wt) of blends of reb A, reb B, and reb N in water were prepared and evaluated at room temperature by five scientists with training and experience in the sensory evaluation of steviol glycosides. The samples were evaluated for sweetness intensity and other qualitative attributes and compared against Reb A. The results are shown in the following table: […]

[3] = Sensory evaluation in citric/citrate buffer at pH 3.2 (Example 4); design: key to Bitterness intensity: 0=none; 1=trace; 2=faint; 3=slight; 4=mild; 5=moderate; 6=definite; 7=strong; 8=very strong; 9=extreme
Procedure: Method: Solutions containing 600 ppm (wt/wt) Reb A or blends of Reb A, Reb B and Reb N in citric/citrate buffer at pH 3.2 were prepared and evaluated at room temperature by three scientists with training and experience in the sensory evaluation of steviol glycosides. The samples were evaluated for sweetness intensity and other qualitative attributes.

[4] = Sensory evaluation of 4-way blend in deionized water (Example 5); design: key to Bitterness / Licorice note: 0=none; 1=trace; 2=faint; 3=slight; 4=mild; 5=moderate; 6=definite; 7=strong; 8=very strong; 9=extreme; conditions: 500 ppm in deionized water
Procedure: Method: Solutions containing 500 ppm Reb A or blends of RebA, RebB, RebD and RebN were prepared in deionized water and evaluated at room temperature by three scientists with training and experience in the sensory evaluation of steviol glycosides. The samples were evaluated for sweetness intensity and other qualitative attributes.

[5] = 600 ppm (wt/wt) in citric/citrate buffer pH 3.2

SMILES	Other Sweetness Quality [1]	Sweetness Linger [1]	Sweetness Onset [1]	Sweetness Intensity (percent sucrose equivalent sweetness) [1] [% SE]	Bitterness [1]	Sweetness intensity rated by the judges [2]	Bitter ([2]; five scientists)	Linger ([2]; five scientists)	Sweet (quality) ([2]; five scientists)	Sweet onset ([2]; five scientists)	Bitter onset [3, 5]	Licorice [3, 5]	Lingering bitterness [3, 5]	Sweet profile [3, 5]	Sucrose equivalent sweetness ([3]; 600 ppm (wt/wt) in citric/citrate buffer pH 3.2, room temperature, three scientists) [%]	Bitterness intensity ([3]; 600 ppm (wt/wt) in citric/citrate buffer pH 3.2, intensity scale 0-9)	Lingering bitter aftertaste [4]	Sucrose equivalent sweetness ([4]; room temperature, three scientists) [%]	Bitterness ([4]; intensity scale 0-9)	Licorice note ([4]; intensity scale 0-9)
C=C1C[C@@]23CC[C@H]4[C@@](C)(CCC[C@@]4(C)C(=O)O[C@@H]4O[C@H](CO)[C@@H](O)[C@H](O)[C@H]4O[C@@H]4O[C@H](CO)[C@@H](O)[C@H](O)[C@H]4O)[C@@H]2CC[C@]1(O[C@@H]1O[C@H](CO)[C@@H](O)[C@H](O[C@@H]2O[C@H](CO)[C@@H](O)[C@H](O)[C@H]2O)[C@H]1O[C@@H]1O[C@H](CO)[C@@H](O)[C@H](O)[C@H]1O)C3 [Reb D, Rebaudioside D]	rounded, and syrupy and best	slight	quick	7	2															
C=C1C[C@@]23CC[C@H]4[C@@](C)(CCC[C@@]4(C)C(=O)O[C@@H]4O[C@H](CO)[C@@H](O)[C@H](O)[C@H]4O)[C@@H]2CC[C@]1(O[C@@H]1O[C@H](CO)[C@@H](O)[C@H](O[C@@H]2O[C@H](CO)[C@@H](O)[C@H](O)[C@H]2O)[C@H]1O[C@@H]1O[C@H](CO)[C@@H](O)[C@H](O)[C@H]1O)C3 [Reb A, Rebaudioside A]	spikey; also recorded: worst	moderate	slow	6	5	6.0	moderate	moderate	poor	slow	extremely rapid	slight	strong	peaky	7	7	moderate	6	6	3
C=C1C[C@@]23CC[C@H]4[C@@](C)(CCC[C@@]4(C)C(=O)O[C@@H]4O[C@H](CO)[C@@H](O)[C@H](O[C@@H]5O[C@H](CO)[C@@H](O)[C@H](O)[C@H]5O)[C@H]4O[C@@H]4O[C@@H](C)[C@H](O)[C@@H](O)[C@H]4O)[C@@H]2CC[C@]1(O[C@@H]1O[C@H](CO)[C@@H](O)[C@H](O[C@@H]2O[C@H](CO)[C@@H](O)[C@H](O)[C@H]2O)[C@H]1O[C@@H]1O[C@H](CO)[C@@H](O)[C@H](O)[C@H]1O)C3 [Reb N]	rounded, and syrupy, and best	moderate	quick	7.5	1															
